Experimental data published in patent US8435976B2, “4-substituted pyridin-3-yl-carboxamide compounds and methods of use” (F. Hoffmann-La Roche, priority 2009, dated 2013).

Tests used:
EOL-1 = EOL-1 cell assay; format: cell-based; conditions: Homo sapiens, EOL1; Table 3
BaF3 PIM2 cells = BaF3 PIM2 cells (Homo sapiens, UniProt Q9P1W9); experiment: BaF3 PIM2 cell proliferation (Cell Titer Glo); format: cell-based; conditions: Table 3; read-out: BaF3-Pim2
How it was run: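 BaF3 cells stably transfected with PIM2 were cultured in RPMI with 10% FBS, 2 mM L-Glutamine and 250 μg/mL G418, then plated at 5 k/well in 45 μL/well of a 384-well plate. Test compound was added at 5 μL/well, cells incubated overnight, and viability measured by luminescence after 30 minutes with Cell Titer Glo (50 μL/well).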

[1] = test system: multiple myeloma cell line KMS11; experiment: Cell Titer Glo proliferation and survival assay, KMS11 and other multiple myeloma cell lines; format: cell-based; conditions: Homo sapiens, KMS-11; single agent; ten multiple myeloma cell lines tested; read-out: IC50 against myeloma cell lines, single agent
From the text: The results obtained here are representative of a total of ten multiple myeloma cell lines tested.

BaF3 PIM1 cells = BaF3 PIM1 cells (Homo sapiens, UniProt P11309); experiment: BaF3 PIM1 cell proliferation (Cell Titer Glo); format: cell-based; conditions: Table 3; read-out: BaF3-Pim1
MM1.S cells = experiment: MM1.S cell proliferation, 72 hours (Cell Titer Glo); format: cell-based; conditions: Homo sapiens, Table 3, read-out: MM1.s
How it was run: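 BaF3 parental cells (2 k/well, with 2 ng/mL mIL-3) were treated overnight, and MM1.S cells (10 k/well) were treated for 72 h at 37 °C. Viability was read by CellTiter-Glo luminescence. IC50/EC50 values were calculated from the luminescence data.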

BaF3 parental cells = experiment: BaF3 parental cell proliferation (Cell Titer Glo); format: cell-based; conditions: Mus musculus, Table 3
Protocol: BaF3 parental line was obtained from the DSMZ repository. BaF3 lines transfected with PIM1 or PIM2 were generated. Mouse IL-3 was purchased from R&D Systems. G418 was purchased from Clontech. Media for BaF3 parental line contained RPMI, 10% FBS, 2 mM L-Glutamine, 2 ng/mL mIL-3. Media for BaF3 PIM1 & 2 lines contained RPMI, 10% FBS, 2 mM L-Glutamine, […]. Media for MM1.S line contained RPMI, 10% FBS, 2 mM L-Glutamine.
BaF3 parental cells, BaF3 PIM1 cells, BaF3 PIM2 cells, and MM1.S cells were seeded at 2 k/well, 5 k/well, 5 k/well, and 10 k/well respectively, in a 384-well plate, at 45 μL/well. Test compound was added at 5 μL/well. BaF3 cells (parental and transfected) were incubated overnight, while MM1.S cells were incubated for 72 hours at 37° C., 5% CO2. Cell Titer Glo Reagent (Promega) was added at 50 μL/well, the plates were incubated for 30 minutes, and their luminescence read on an HT Analyst. IC50/EC50 values for the test compound were calculated.

[2] = test system: multiple myeloma cell line MM.1S; experiment: MM.1S 3 day proliferation assay, single agents and combinations (Cell-Titer Glo); format: cell-based; conditions: FIG. 1
Protocol: The in vitro potency of the combinations of formula I compounds with chemotherapeutic agents was measured by the cell proliferation assay of Example 11 and the results are compiled in Example iii. The CellTiter-Glo® Luminescent Cell Viability Assay (commercially available from Promega Corp., Madison, Wis.) is a homogeneous assay method based on the recombinant expression of Coleoptera luciferase (U.S. Pat. No. 5,583,024; U.S. Pat. No. 5,674,713; U.S. Pat. No. 5,700,670) and determines the number of viable cells in culture based on quantitation of the ATP present, an indicator of metabolically active cells (Crouch et al (1993) J. Immunol. Meth. 160:81-88; U.S. Pat. No. 6,602,677). The CellTiter-Glo® Assay was conducted in 96 or 384 well format, making it amenable to automated high-throughput screening (HTS) (Cree et al (1995) AntiCancer Drugs 6:398-404). The homogeneous assay procedure involves adding the single reagent (CellTiter-Glo® Reagent) directly to cells cultured in serum-supplemented medium. Cell washing, removal of medium and multiple pipetting steps are not required. The system detects as few as 15 cells/well in a 384-well format in 10 minutes after adding reagent and mixing.
The homogeneous “add-mix-measure” format results in cell lysis and generation of a luminescent signal proportional to the amount of ATP present. […] Viable cells are reflected in relative luminescence units (RLU). […] Data can be recorded by luminometer or CCD camera imaging device. The luminescence output is presented as relative light units (RLU), measured over time.
The combination index (CI) score is calculated by the Chou and Talalay method (Chou, T. and Talalay, P. (1984) Adv. Enzyme Regul. 22:27-55). […] The strength of synergy is assessed according to Chou and Talalay. […]
The in vitro cell survival and proliferation assay (Cell-Titer Glo, Promega) measured viable cells over varying inhibitor concentrations (10^−3 to 10 μMolar, Relative Units, wherein a Relative Unit equals 0.3 micromolar for Compound 3, 0.3 micromolar for Formula A, and 0.1 micromolar for Formula B). […]

[3] = test system: MM1.s multiple myeloma xenografts; experiment: MM1.s multiple myeloma xenograft; format: in vivo, SCID mice; conditions: Formula A 75 mg/kg po qd, day 18; compared with Compound 3 50 mg/kg
Protocol: (§1) The efficacy of the combinations of the invention may be measured in vivo by implanting allografts or xenografts of cancer cells in rodents and treating the tumor-bearing animals with the combinations. Variable results are to be expected depending on the cell line, the presence or absence of certain mutations in the tumor cells, the sequence of administration of a formula I compound and chemotherapeutic agent, dosing regimen, and other factors. Subject mice were treated with drug(s) or control (Vehicle) and monitored over several weeks or more to measure the time to tumor doubling, log cell kill, and tumor inhibition.
Dosing of all cohorts commenced on Day 0 when the mean tumor volume of all cohorts was between about 200 to 300 cubic millimeters. […] Formula A was tested at as a single agent at a single dose level of 75 mg/kg for which a lesser TGI was obtained at day 18.

[4] = test system: bone marrow aspirate samples from multiple myeloma patients; experiment: Primary cancer cell isolates from bone marrow aspirates, apoptosis; format: cell-based, human; conditions: 0.3 or 1.0 micromolar; two of four cases
Protocol: Shown in FIG. 2 are a summary of Combination Index values for Compound 3 in combination with different agents. The values shown were calculated at the ED50 of the dose response curves which were similar in nature to those exemplified in FIG. 1. Each dot in the plot represents the test results obtained with a different multiple myeloma cell line with a different combination of test agents, including Compound 3 plus a second agent as labeled on the abscissa. The horizontal line on the plot itself indicates the mean of all CI values for a given test agent. Combinations of Compound 3 with clinical standard of care chemotherapeutic agents including dexamethasone, lenalidomide, bortezomib, and melphalan produced variable results wherein CI values between about 0.1 and about 1 were obtained, with means generally greater than about 0.5. Compared to these clinically active agents, unexpectedly uniform and unexpectedly potent combination test results were obtained for Compound 3 in combination with Formula A, in which the majority of calculated CI values were less than about 0.2 and the mean across all cancer cell lines tested was about 0.2. In addition to these findings, bone marrow aspirate samples from multiple myeloma patients […] to test Formula A and Compound 3 singly and in combination on these primary cancer cell isolates.

[5] = test system: syngeneic A20 lymphoma tumors; experiment: Syngeneic A20 lymphoma tumor model; format: in vivo, Balb/c mice; conditions: Compound 3 25 and 50 mg/kg or Formula A 75 mg/kg po qd x21
Protocol: The efficacy of the combinations of the invention may be measured in vivo by implanting allografts or xenografts of cancer cells in rodents and treating the tumor-bearing animals with the combinations. […] Subject mice were treated with drug(s) or control (Vehicle) and monitored over several weeks or more to measure the time to tumor doubling, log cell kill, and tumor inhibition.
Dosing of all cohorts commenced on Day 0 when the mean tumor volume of all cohorts was between […]. […] At the conclusion of this study, femurs were collected and histological analysis of the bone marrow was conducted, and peripheral blood was collected for determination of blood cell counts.

[6] = test system: prostate cancer cell line PC3; experiment: Cell Titer Glo proliferation and survival assay, PC3; format: cell-based; conditions: PC3, FIG. 5
From the text: The results obtained here are representative of a subset of prostate cell lines tested.

[7] = test system: RPMI 8226.x1 multiple myeloma xenografts; experiment: RPMI 8226.x1 multiple myeloma xenograft; format: in vivo, SCID Beige mice; conditions: Formula A 75 mg/kg po qd x21, day 27
Protocol: as §1
Dosing of all cohorts commenced on Day 0 when the mean tumor volume of all cohorts was between about 100 to 200 cubic millimeters.

BaF3 PIM2 cells, sequence (Q9P1W9 whole entry, change not shown): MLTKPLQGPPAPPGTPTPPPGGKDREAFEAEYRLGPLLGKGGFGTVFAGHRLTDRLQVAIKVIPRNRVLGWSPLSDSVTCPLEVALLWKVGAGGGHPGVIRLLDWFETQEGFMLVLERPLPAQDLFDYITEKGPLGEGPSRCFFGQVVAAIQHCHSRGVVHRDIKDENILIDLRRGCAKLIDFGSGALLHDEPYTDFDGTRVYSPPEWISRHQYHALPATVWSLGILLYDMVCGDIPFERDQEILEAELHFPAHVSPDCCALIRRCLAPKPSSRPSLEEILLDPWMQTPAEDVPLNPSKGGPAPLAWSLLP
BaF3 PIM1 cells, sequence (P11309 whole entry, change not shown): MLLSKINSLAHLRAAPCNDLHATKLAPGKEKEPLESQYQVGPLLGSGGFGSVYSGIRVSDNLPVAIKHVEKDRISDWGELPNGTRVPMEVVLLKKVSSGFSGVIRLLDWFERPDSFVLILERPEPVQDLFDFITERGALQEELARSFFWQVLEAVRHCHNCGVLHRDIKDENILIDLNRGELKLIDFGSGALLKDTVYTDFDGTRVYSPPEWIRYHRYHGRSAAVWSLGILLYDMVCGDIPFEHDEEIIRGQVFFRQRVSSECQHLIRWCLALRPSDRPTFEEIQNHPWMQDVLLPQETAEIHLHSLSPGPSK

In the case of O=C(Nc1c[nH]c2ncccc12)c1cnn2ccc(NCCc3ccccc3)nc12 [Compound PIMi, 5-(phenethylamino)-N-(1H-pyrrolo[2,3-b]pyridine-3-yl)pyrazolo[1,5-a]pyrimidine-3-carboxamide, reference compound], the IC50 (EOL-1) is reported as 400 nM, the GI50 (BaF3 PIM2 cells) is reported as > 20000 nM and the IC50 [1] is reported as > 5000 nM. The GI50 (BaF3 PIM1 cells) was 400 nM, the EC50 (MM1.S cells) was > 20000 nM and the IC50 (BaF3 parental cells) was 12000 nM.

In the case of CS(=O)(=O)N1CCN(Cc2cc3nc(-c4cccc5[nH]ncc45)nc(N4CCOCC4)c3s2)CC1 [Formula A, 4-(2-(1H-indazol-4-yl)-6-((4-(methylsulfonyl)piperazin-1-yl)methyl)thieno[3,2-d]pyrimidin-4-yl)morpholine, reference compound], the “lowest level reached by dose-response curve, of control value” [2] is reported as “about 0%”, the “tumor growth inhibition (TGI), in words” value [3] is reported as “lesser TGI” and the “activity on primary cancer cell isolates” value [4] is reported as “only limited single agent activity”. For the same compound, the “effect on tumor growth, single agents” value [5] was “no significant effect on tumor growth”, the IC50 [6] was ~300 nM and the “tumor growth inhibition (TGI)” value [7] was 40%.

Cc1c(CN2CCN(C(=O)[C@H](C)O)CC2)sc2c(N3CCOCC3)nc(-c3cnc(N)nc3)nc12 [Formula B, (S)-1-(4-((2-(2-aminopyrimidin-5-yl)-7-methyl-4-morpholinothieno[3,2-d]pyrimidin-6-yl)methyl)piperazin-1-yl)-2-hydroxypropan-1-one] was tested, and the “lowest level reached by dose-response curve, of control value” [2] was “about 0%”.
